Reference: PubChem BioAssay (NCI)
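Each compound was tested at five concentrations against cells in 96-well plates for 48 hours. TGI marks complete inhibition of growth.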

Legend:
Experiment in all cases: NCI tumour cell line growth inhibition, 48 h
[1] = test system: KM12 colon
[2] = test system: SR leukemia
[3] = test system: HS 578T breast
[4] = test system: MDA-MB-231 breast
[5] = test system: OVCAR-3 ovarian
[6] = test system: COLO 205 colon
[7] = test system: A549 NSCLC
[8] = test system: K-562 leukemia
[9] = test system: SF-539 CNS
[10] = test system: RXF 393 renal
[11] = test system: HCT-15 colon
[12] = test system: CCRF-CEM leukemia
[13] = test system: OVCAR-5 ovarian
[14] = test system: T-47D breast
[15] = test system: SNB-75 CNS
[16] = test system: IGROV1 ovarian
[17] = test system: NCI-H460 lung
[18] = test system: BT-549 breast
[19] = test system: A498 renal
[20] = test system: SF-268 CNS

SMILES	TGI [1]	TGI [2]	TGI [3]	TGI [4]	TGI [5]	TGI [6]	TGI [7]	TGI [8]	TGI [9]	TGI [10]	TGI [11]	TGI [12]	TGI [13]	TGI [14]	TGI [15]	TGI [16]	TGI [17]	TGI [18]	TGI [19]	TGI [20]
Nc1nc(Cl)cc(NCC2(CO)CC(CCCc3ccccc3)C2)n1 (stereo not given)	> 100 µM	> 100 µM	> 100 µM	> 100 µM	> 100 µM	> 100 µM	> 100 µM	> 100 µM	> 100 µM	> 78.2 µM	> 100 µM	> 100 µM	> 100 µM	> 100 µM	98.2 µM	> 100 µM	> 100 µM	> 100 µM	> 100 µM	> 100 µM
CCOC(=O)c1ccc(OCc2nc3cc(C(F)(F)F)ccc3nc2-c2ccccc2)cc1	> 100 µM	> 100 µM	> 100 µM	> 100 µM	> 100 µM	> 100 µM	> 100 µM	> 100 µM	> 100 µM	> 100 µM	> 100 µM	> 100 µM	> 100 µM	> 100 µM	> 100 µM	> 100 µM	> 100 µM	> 100 µM	> 100 µM	> 100 µM
O=[N+]([O-])c1ccc(CSc2c3ccccc3nc3ccccc23)cc1	16.2 µM	> 27.1 µM	11.3 µM	27.4 µM	14.4 µM	16.9 µM	51.4 µM	> 34.9 µM	9.43 µM	18.5 µM	27.5 µM	> 22.9 µM	32.5 µM	4.18 µM	33.1 µM	7.66 µM	46.9 µM	33.4 µM	58.8 µM	22.8 µM
NNC(=O)CC(=O)Nc1ccccc1Cl	> 100 µM	> 100 µM	> 100 µM	> 100 µM	> 100 µM	> 100 µM	> 100 µM	> 100 µM	> 100 µM	> 100 µM	> 100 µM	> 100 µM	> 100 µM	> 100 µM	> 100 µM	> 100 µM	> 100 µM	> 100 µM	> 100 µM	> 100 µM
O=C1CC(C(O)C(O)C(O)CO)CC(=O)N1 (stereo not given)	> 100 µM	> 100 µM	> 100 µM	> 100 µM	> 100 µM	> 100 µM	> 100 µM	> 100 µM	> 100 µM	> 100 µM	> 100 µM	> 100 µM	> 100 µM	> 100 µM	> 100 µM	> 100 µM	> 100 µM	> 100 µM	> 100 µM	> 100 µM
Cn1c(=O)c2c(nc(N3CCOCC3)n2CCCNCC(O)c2ccc(O)c(O)c2)n(C)c1=O (stereo not given)	> 100 µM	> 100 µM	> 100 µM	> 100 µM	> 100 µM	> 100 µM	> 100 µM	> 100 µM	> 100 µM	> 100 µM	> 100 µM	> 100 µM	> 100 µM	> 100 µM	> 100 µM	> 100 µM	> 100 µM	> 100 µM	> 100 µM	> 100 µM
CC(=O)NC1C(O)C(O)C(CO)OC1n1nc(SCc2ccccc2)c(=O)[nH]c1=O (stereo not given)	> 100 µM	> 100 µM	> 100 µM	> 100 µM	> 100 µM	> 100 µM	> 100 µM	> 100 µM	> 100 µM	> 100 µM	> 100 µM	> 100 µM	> 100 µM	> 100 µM	> 100 µM	> 100 µM	> 100 µM	> 100 µM	> 100 µM	> 100 µM
Cc1cc2nn(C3CCCCO3)nc2cc1C (stereo not given)	> 100 µM	> 100 µM	> 100 µM	> 100 µM	> 100 µM	> 100 µM	> 100 µM	> 100 µM	> 100 µM	> 100 µM	> 100 µM	> 100 µM	> 100 µM	> 100 µM	> 100 µM	> 100 µM	> 100 µM	> 100 µM	> 100 µM	> 100 µM
COCn1c(=O)n(C)c(=O)c2c1nc1c(c(=O)n(C)c(=O)n1COC)[n+]2[O-]	> 100 µM	21.3 µM	50.1 µM	44.4 µM	44.1 µM	31.8 µM	91.2 µM	24 µM	39.2 µM	10.9 µM	30.6 µM	27.4 µM	97.2 µM	41.8 µM	22.3 µM	48.9 µM	24.9 µM	87.1 µM	82.8 µM	77 µM
Cc1cc(C)c(-n2c(C)c(C)c(C#N)c2N)c(C)c1	> 100 µM	38.4 µM	> 100 µM	> 100 µM	> 100 µM	38.9 µM	> 100 µM	78.5 µM	69.8 µM	94.8 µM	> 100 µM	45.5 µM	> 100 µM	> 100 µM	> 100 µM	> 100 µM	78.6 µM	> 100 µM	97.1 µM	> 100 µM
CCCCCCCCCCCCCCCCCCNc1ccn(C2OC(COP(=O)(O)OCC(COP(=O)(O)OCC3OC(n4cc(C)c(=O)[nH]c4=O)CC3N=[N+]=[N-])OCCCCCCCCCCCCCCCCCC)C(O)C2O)c(=O)n1 (stereo not given)	> 100 µM	> 100 µM	> 100 µM	> 100 µM	> 100 µM	> 100 µM	> 100 µM	> 100 µM	88.7 µM	> 100 µM	> 100 µM	> 100 µM	> 100 µM	> 100 µM	> 100 µM	> 100 µM	> 100 µM	> 100 µM	> 100 µM	> 100 µM
CC(/C=C/C=C\C=C\C=C(/C)C(=O)NC(C)CO)=C\C(C)C(O)/C(C)=C/C(C)CCc1ccccc1 (stereo not given)	19.1 µM	> 59 µM	52.8 µM	45.2 µM	20 µM	26.8 µM	> 100 µM	> 53.6 µM	27.1 µM	26.6 µM	31.1 µM	> 56.6 µM	31 µM	46.4 µM	26.7 µM	20.1 µM	26.5 µM	33.1 µM	26.7 µM	28.4 µM
CCOC(=O)CC[C@H](NC(=O)c1ccc(CNc2nc3cc(C(F)(F)F)ccc3nc2C(=O)OCC)cc1)C(=O)OCC	> 100 µM	> 100 µM	19.7 µM	> 48.4 µM	> 53.2 µM	> 100 µM	> 100 µM	> 100 µM	17.3 µM	> 100 µM	> 100 µM	> 100 µM	> 86 µM	60.8 µM	41.3 µM	> 53.4 µM	77.7 µM	70.3 µM	> 100 µM	34.4 µM
CSC1=NC(=O)CCN1C1OCC(OC(C)=O)C(OC(C)=O)C1OC(C)=O (stereo not given)	> 31.6 µM	> 31.6 µM	22.5 µM	22.4 µM	18.6 µM	> 31.6 µM	> 31.6 µM	> 31.6 µM	28.7 µM	23.6 µM	> 31.6 µM	> 31.6 µM	> 31.6 µM	> 31.6 µM	22.7 µM	23 µM	> 31.6 µM	25 µM	25.3 µM	29.3 µM
O=c1oc2cc(O)ccc2c(O)c1C(c1ccc2ccccc2c1)c1c(O)c2ccc(O)cc2oc1=O	> 100 µM	67.1 µM	59.7 µM	> 100 µM	> 100 µM	> 100 µM	> 100 µM	> 100 µM	> 100 µM	> 100 µM	> 100 µM	> 100 µM	> 100 µM	> 100 µM	37.7 µM	> 100 µM	> 100 µM	> 100 µM	> 100 µM	33.5 µM
CC1(C)[C@H]2CC[C@](C)(C2)[C@]1(S)Cc1ccccn1	> 100 µM	43.2 µM	> 100 µM	> 100 µM	73 µM	> 100 µM	> 100 µM	> 100 µM	> 100 µM	80.2 µM	> 100 µM	24.8 µM	> 100 µM	73.1 µM	77.1 µM	> 100 µM	> 100 µM	> 100 µM	> 100 µM	> 100 µM
SCc1ccc(-c2ccc(CS)cc2)cc1	10.1 µM	5.79 µM	22.3 µM	31 µM	32.2 µM	37.4 µM	39.6 µM	26.9 µM	33.5 µM	32.9 µM	33.3 µM	10.7 µM	27 µM	41.6 µM	28.1 µM	32.5 µM	25.1 µM	6.47 µM	> 64.3 µM	10.3 µM
Cc1c2ccccc2c(CSC(=N)N)c2ccccc12	0.545 µM	0.0673 µM	0.475 µM	1.03 µM	2.73 µM	0.37 µM	1.62 µM	1.4 µM	0.419 µM	0.161 µM	1.96 µM	0.0588 µM	1.13 µM	5.32 µM	0.445 µM	2.36 µM	0.374 µM	3.72 µM	0.4 µM	1.33 µM
CC(=O)O[C@H]1C[C@H]2[C@@H]([C@H](OC(C)=O)C[C@@H]3CC4(CC[C@@]32C)OOC2(CCCCC2)OO4)[C@@H]2CC[C@H]([C@H](C)CCC(N)=O)[C@@]12C	3.3 µM	1.88 µM	19.7 µM	4.22 µM	3.17 µM	3.68 µM	2.93 µM	6.02 µM	10.7 µM	10.2 µM	5.31 µM	3.13 µM	6.65 µM	3.84 µM	4.89 µM	0.474 µM	5.06 µM	4.86 µM	18.1 µM	3.47 µM
C=CC(C)CCC(C/C=C(\C)CCCC(C)C)C(=C)CCCC(C)C (stereo not given)	> 100 µM	> 100 µM	> 100 µM	> 100 µM	> 100 µM	> 100 µM	> 100 µM	> 100 µM	> 100 µM	> 100 µM	> 100 µM	> 100 µM	> 100 µM	> 100 µM	> 100 µM	> 100 µM	> 100 µM	> 100 µM	> 100 µM	> 100 µM
COc1cc(/C=C2/CCCc3ccccc3C2=O)cc(OC)c1OC	> 50.1 µM	> 39.2 µM	> 84.2 µM	> 51.4 µM	> 55.6 µM	> 60.8 µM	> 100 µM	> 23.8 µM	> 64.7 µM	> 100 µM	> 100 µM	> 100 µM	> 100 µM	> 100 µM	> 49.9 µM	> 100 µM	> 100 µM	> 78.5 µM	> 75 µM	> 52.3 µM
